Drawing on patent publication US9649314B2, “Pyrimido[4,5-b]quinoline-4,5(3H,10H)-diones” (NOVARTIS AG, priority 2012, dated 2017), this text covers Emax and AC50 for 28 compounds.

Read-outs that look alike come from different tables or passages of the source.

The test system of this assay is CFTR-Y122X. Description: CFTR-Y122X assay (dual reporter isogenic Hek293 cell lines, Renilla luminescence readthrough). The class given is cell-based. The following applies: Homo sapiens, HEK293; for Emax at 100 µM: measured at 100 μM compound concentration (footnote d); for Emax at 25 µM: measured at 25 μM compound concentration (footnote a). An excerpt: Activity of compounds of the present invention was examined in recombinant, dual reporter isogenic Hek293 cell lines (“CFTR-Y122X assay”). The engineered reporter constructs contained the 18 bp sequence stretch corresponding to a common Y122X PTC mutation in CFTR class I mutant patients (see Sermet-Gaudelus, BMC Medicine, 2007, 5(5)). Instead of a tyrosine (Y) in position 122 of the CFTR protein a TGA stop codon interrupts the open reading frame (Y122X) of the corresponding mRNA. This TGA stop codon triplet (followed by the pyrimidine base cytosine) is permissive to aminoglycoside mediated translational readthrough which served as positive control for high throughput screening. A corresponding TAA stop codon variant and a wildtype non mutated construct was used for confirmation and counter screening. The CFTR sequence was sandwiched between an eGFP reporter, and a triple myc tag sequence fused to a full length Renilla reporter. All sequences, including an intron containing one positioned pre-eGFP (b-globin intron) were cloned in frame. The corresponding expression constructs were stably expressed in the isogenic HEK-R4 cell host (Invitrogen Incorp.) and selected by blasticidin resistance. The isogenic integration of the construct minimizes gene dose effects and improves assay reproducibility. Stably integrated single cell derived clones were selected and characterized for aminoglycoside mediated readthrough. […] Readthrough of Y122X accumulates an intracellular localized fusion protein approximately 65.5 kDa in size as controlled by western blot analysis and immunofluorescence using an anti-renilla antibody. The eGFP reporter pre-PTC mutation serves as visual control for genetic stability of the screening clones and minimizes protein degradation of small fusion protein amounts. In the assay, compound concentration was 10 μM. In miniaturized 1536 well format 2000 cells were dispensed in 4 μl/well and incubated for 24 h at 37° C., 5% CO2. 40 nl compounds were placed on the cells with control wells containing 1 ul Paramomycin and 14.4 mM final concentration. Compounds were incubated for 24 h. Renilla Glo substrate (2.5 ul) was added and plates were centrifuged and processed for luminescence measurement using various readers. Activity calculation was done using the equation: A1 (%)=100*(S−NC)/(AC−NC) where AC, NC and S correspond to active controls (injection of Stimulation buffer=100% stimulation), neutral controls (buffer injection which Iloprost EC10) and screening samples (S). NC corresponds to 0% activity whereas AC is 100% activity (14 mM paromomycin). False positive artefacts were removed in confirmation and validation screening using the same assay format followed by counterscreening using the respective wildtype construct (w/o PTC mutation) cell model. Compounds were tested up to 100 μM compound concentration.

The mark [1] stands for this setting: read-out: Amax [%]: % nonsense mutation suppression relative to paromomycin reference activity.
Setting [2] is: nonsense mutation suppression, 100% = 14 mM paromomycin, 24 h incubation, tested up to 100 μM, read-out: Amax [%].
The mark [3] stands for this setting: nonsense mutation suppression, 24 h incubation.
The mark [4] stands for this setting: at the above dose ranges (up to 100 μM), read-out: suppression, % of paromomycin reference activity.

As for `Cn1c2ccccc2c(=O)c2c(=O)n(C3CCCC3)c(-c3ccccc3)nc21` [Example 2.39, 3-cyclopentyl-10-methyl-2-phenylpyrimido[4,5-b]quinoline-4,5(3H,10H)-dione], the Emax at 50 µM (measured at 50 μM compound concentration (footnote e), read-out: Amax [%]: % nonsense mutation suppression relative to paromomycin reference activity) came to 31%.

Regarding `Cc1ccccc1-c1nc2c(c(=O)c3ccccc3n2C)c(=O)n1C1CCCCC1` [Example 2.37, 3-cyclohexyl-10-methyl-2-(o-tolyl)pyrimido[4,5-b]quinoline-4,5(3H,10H)-dione], the Emax at 100 µM under setting [1] stood at 28%.

With `CC(C)c1nc2c(c(=O)c3ccccc3n2C)c(=O)n1C1CCOCC1` [Example 2.7, 2-isopropyl-10-methyl-3-(tetrahydro-2H-pyran-4-yl)pyrimido[4,5-b]quinoline-4,5(3H,10H)-dione], the Emax at 25 µM under setting [1] worked out at 151%.

The AC50 is the concentration at which the activity in the assay is half-maximal. Read a high AC50 as activity only at high concentration. `CC(C)c1nc2c(c(=O)c3cc(Cl)ccc3n2C)c(=O)n1-c1ccccc1` [Example 1.24, 7-chloro-2-isopropyl-10-methyl-3-phenylpyrimido[4,5-b]quinoline-4,5(3H,10H)-dione]: the Emax under setting [2] came out at 140%. The compound further yielded an AC50 under setting [3] of 11.5 µM.

`CC(C)c1nc2c(c(=O)c3ccccc3n2C)c(=O)n1C1CCCOC1` (stereo not drawn) [Example 1.45, 2-isopropyl-10-methyl-3-(tetrahydro-2H-pyran-3-yl)pyrimido[4,5-b]quinoline-4,5(3H,10H)-dione]: the Emax under setting [2] was determined as 389%. In addition, under setting [3], the AC50 was 4.7 µM.

As for `O=c1c2ccccc2[nH]c2nc(C3CCC3)n(-c3ccccc3)c(=O)c12` [Example 1.5, 2-cyclobutyl-3-phenylpyrimido[4,5-b]quinoline-4,5(3H,10H)-dione], the Emax under setting [2] came out at 170%. Under setting [3], this compound yielded a half-maximal activity concentration (AC50) of 1.1 µM.

For `COc1ccc(-c2nc3c(c(=O)c4ccccc4n3C)c(=O)n2C2CCCCCC2)cc1` [Example 2.47, 3-cycloheptyl-2-(4-methoxyphenyl)-10-methylpyrimido[4,5-b]quinoline-4,5(3H,10H)-dione], under setting [2], the Emax was found to be 10%. The compound also showed an AC50 under setting [3] of 3.1 µM.

Regarding `COc1ccccc1-n1c(C(C)C)nc2c(c(=O)c3ccccc3n2C)c1=O` [Example 1.19, 2-isopropyl-3-(2-methoxyphenyl)-10-methylpyrimido[4,5-b]quinoline-4,5(3H,10H)-dione], the Emax at 12.5 µM (measured at 12.5 μM compound concentration (footnote b), read-out: Amax [%]: % nonsense mutation suppression relative to paromomycin reference activity) came out at 16%.

Take `CC(C)c1nc2c(c(=O)c3cc(Br)ccc3n2C)c(=O)n1-c1ccccc1` [Example 1.25, 7-bromo-2-isopropyl-10-methyl-3-phenylpyrimido[4,5-b]quinoline-4,5(3H,10H)-dione]: under setting [2], the Emax came to 68%. Moreover, the AC50 under setting [3] worked out at 19.5 µM.

`CCCc1nc2c(c(=O)c3ccccc3n2C)c(=O)n1C1CCCCCC1` [Example 2.23, 3-cycloheptyl-10-methyl-2-propylpyrimido[4,5-b]quinoline-4,5(3H,10H)-dione]: the Emax under setting [2] was 181%. This compound registered an AC50 under setting [3] of 5 µM.

Turning to `Cn1c2ccccc2c(=O)c2c(=O)n(C3CCCCC3)c(-c3cccc([N+](=O)[O-])c3)nc21` [Example 2.19, 3-cyclohexyl-10-methyl-2-(3-nitrophenyl)pyrimido[4,5-b]quinoline-4,5(3H,10H)-dione], the Emax under setting [2] is 248%. This compound displayed an AC50 under setting [3] of 11.6 µM.

For `CCCc1nc2c(c(=O)c3ccccc3n2C)c(=O)n1-c1cc(C)cc(C)c1` [Example 1.36, 3-(3,5-dimethylphenyl)-10-methyl-2-propylpyrimido[4,5-b]quinoline-4,5(3H,10H)-dione], under setting [2], the Emax came to 9%. The AC50 under setting [3] was determined as 1 µM.

For the compound `Cc1ccc(-c2nc3c(c(=O)c4ccccc4n3C)c(=O)n2C2CCCCC2)cc1` [Example 2.36, 3-cyclohexyl-10-methyl-2-(p-tolyl)pyrimido[4,5-b]quinoline-4,5(3H,10H)-dione], under setting [2], the Emax came to 29%. Moreover, the activity under setting [3] was half-maximal at 3.5 µM (AC50).

For the compound `CCCCc1nc2c(c(=O)c3ccccc3n2C)c(=O)n1-c1ccccc1` [Example 1.12, 2-butyl-10-methyl-3-phenylpyrimido[4,5-b]quinoline-4,5(3H,10H)-dione], the Emax under setting [2] stood at 391%. Further, the AC50 under setting [3] turned out to be 4.8 µM.

For `Cn1c2ccccc2c(=O)c2c(=O)n(C3CCCCCC3)c(C3CCCCC3)nc21` [3-cycloheptyl-2-cyclohexyl-10-methylpyrimido[4,5-b]quinoline-4,5(3H,10H)-dione], under setting [4], the Emax is less than 5%.

On to `CC(C)c1nc2c(c(=O)c3ccccc3n2C)c(=O)n1C1CCOC1` (stereo not drawn) [2-isopropyl-10-methyl-3-(tetrahydrofuran-3-yl)pyrimido[4,5-b]quinoline-4,5(3H,10H)-dione], for which, under setting [4], the Emax is less than 5%.

In the case of `Cn1c2ccccc2c(=O)c2c(=O)n(C3CCCCC3)c(-c3ccccc3)nc21` [Example 2.16, 3-cyclohexyl-10-methyl-2-phenylpyrimido[4,5-b]quinoline-4,5(3H,10H)-dione], the Emax under setting [2] came to 312%. In addition, the AC50 under setting [3] was 8.6 µM.

Turning to `CC(C)c1nc2[nH]c3ccccc3c(=O)c2c(=O)n1C1CCCC1` [Example 2.2, 3-cyclopentyl-2-isopropylpyrimido[4,5-b]quinoline-4,5(3H,10H)-dione], the Emax under setting [2] was 235%. Further, the activity under setting [3] was half-maximal at 2.1 µM (AC50).

Take `NCCn1c2ccccc2c(=O)c2c(=O)n(-c3ccccc3)c(C3CCC3)nc21` [Example 1.37, 10-(2-aminoethyl)-2-cyclobutyl-3-phenylpyrimido[4,5-b]quinoline-4,5(3H,10H)-dione]: the Emax under setting [2] was 348%. The compound further yielded an AC50 under setting [3] of 0.9 µM.

For the compound `Cn1c2ccccc2c(=O)c2c(=O)n(C3CCCCC3)c(-c3ccc([N+](=O)[O-])cc3)nc21` [Example 2.45, 3-cyclohexyl-10-methyl-2-(4-nitrophenyl)pyrimido[4,5-b]quinoline-4,5(3H,10H)-dione], the Emax under setting [2] came to 14%. For the same compound, the AC50 under setting [3] is 11 µM.

Consider `Cc1ccccc1-c1nc2c(c(=O)c3ccccc3n2C)c(=O)n1C1CCCCCC1` [Example 2.48, 3-cycloheptyl-10-methyl-2-(o-tolyl)pyrimido[4,5-b]quinoline-4,5(3H,10H)-dione], for which, under setting [1], the Emax at 100 µM is 7%.

Regarding `Cn1c2ccccc2c(=O)c2c(=O)n(C3CCCCC3)c(-c3ccc(Cl)cc3)nc21` [Example 2.44, 2-(4-chlorophenyl)-3-cyclohexyl-10-methylpyrimido[4,5-b]quinoline-4,5(3H,10H)-dione], the Emax under setting [2] stood at 16%.

As for `Cc1ccc(-c2nc3c(c(=O)c4ccccc4n3C)c(=O)n2C2CCCC2)cc1` [Example 2.40, 3-cyclopentyl-10-methyl-2-(p-tolyl)pyrimido[4,5-b]quinoline-4,5(3H,10H)-dione], under setting [2], the Emax came out at 20%. Besides, under setting [3], the AC50 worked out at 6.7 µM.

As to `Cn1c2ccccc2c(=O)c2c(=O)n(C3CCCC3)c(-c3ccc(F)cc3)nc21` [Example 2.33, 3-cyclopentyl-2-(4-fluorophenyl)-10-methylpyrimido[4,5-b]quinoline-4,5(3H,10H)-dione], the Emax at 100 µM under setting [1] was 18%.

Take `Cn1c2ccccc2c(=O)c2c(=O)n(-c3ccccc3)c(C3CC(C)(C)C3)nc21` [Example 1.7, 2-(3,3-dimethylcyclobutyl)-10-methyl-3-phenylpyrimido[4,5-b]quinoline-4,5(3H,10H)-dione]: under setting [2], the Emax is 7%. For the same compound, the AC50 under setting [3] turned out to be 3.8 µM.

For the compound `CC(C)c1nc2c(c(=O)c3cc(Br)ccc3n2C)c(=O)n1C1CCCC1` [Example 2.12, 7-bromo-3-cyclopentyl-2-isopropyl-10-methylpyrimido[4,5-b]quinoline-4,5(3H,10H)-dione], the Emax at 25 µM under setting [1] worked out at 23%.

For the compound `Cn1c2ccccc2c(=O)c2c(=O)n(C3CCCCCC3)c(-c3ccc([N+](=O)[O-])cc3)nc21` [3-cycloheptyl-10-methyl-2-(4-nitrophenyl)pyrimido[4,5-b]quinoline-4,5(3H,10H)-dione], the Emax under setting [4] was less than 5%.

For the compound `CC(C)c1nc2c(c(=O)c3ccccc3n2CCN)c(=O)n1-c1ccccc1` [Example 1.41, 10-(2-aminoethyl)-2-isopropyl-3-phenylpyrimido[4,5-b]quinoline-4,5(3H,10H)-dione], under setting [2], the Emax amounted to 198%. Moreover, under setting [3], the AC50 was found to be 19.5 µM.
